Measurements from PubChem BioAssay (NCI).
Where “and” joins values, the source holds several entries; their conditions need not be identical. Equal values may be shown once.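 Tested at 5 concentrations; 48 h exposure; 96-well plates; endpoints linearly interpolated, else capped at highest concentration. At the GI50, growth is halved. TGI marks complete inhibition of growth.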

Assays:
Experiment in all cases: NCI-60 cell line screen, 48 h
A549 NSCLC = tested on: A549 NSCLC
K-562 leukemia = tested on: K-562 leukemia
M14 melanoma = tested on: M14 melanoma
NCI-H522 lung = tested on: NCI-H522 lung
OVCAR-3 ovarian = tested on: OVCAR-3 ovarian
OVCAR-4 ovarian = tested on: OVCAR-4 ovarian
UO-31 renal = tested on: UO-31 renal
DU-145 prostate = tested on: DU-145 prostate
HCT-15 colon = tested on: HCT-15 colon
MCF7 breast = tested on: MCF7 breast

Compound | TGI (A549 NSCLC) | TGI (K-562 leukemia) | TGI (M14 melanoma) | TGI (NCI-H522 lung) | TGI (OVCAR-3 ovarian) | TGI (OVCAR-4 ovarian) | TGI (UO-31 renal) | TGI (DU-145 prostate) | TGI (HCT-15 colon) | TGI (MCF7 breast) | GI50 (A549 NSCLC) | GI50 (DU-145 prostate) | GI50 (HCT-15 colon) | GI50 (K-562 leukemia) | GI50 (MCF7 breast) | GI50 (NCI-H522 lung) | GI50 (OVCAR-3 ovarian) | GI50 (OVCAR-4 ovarian) | GI50 (UO-31 renal) | GI50 (M14 melanoma)
Cc1c(C(=O)/C=C/c2ccc([N+](=O)[O-])cc2)[n+](=O)c2ccccc2n1[O-] | > 100 µM | > 100 µM | > 100 µM | 53.6 µM | > 100 µM | > 100 µM | > 100 µM |  |  |  |  |  |  |  |  |  |  |  |  | 
O=C(CCl)N1CCN(c2ccccn2)CC1 | > 10 µM | > 100 µM | 35.5 µM |  |  | 31 µM | 36.3 µM | > 100 µM | > 10 µM | 53 µM |  |  |  |  |  |  |  |  |  | 
c1ccc(-c2sc(-c3ccccc3)c3c2C(c2ccccc2)c2c(-c4ccccc4)sc(-c4ccccc4)c2C3c2ccccc2)cc1 (stereo not drawn) | > 100 µM | > 100 µM | > 100 µM | > 100 µM | > 100 µM | > 100 µM | > 100 µM |  | > 100 µM |  |  |  |  |  |  |  |  |  |  | 
Nc1nc(N)c2c(Cl)c(CNc3ccc(Cl)c(Cl)c3)ccc2n1 | 14.5 µM | 2.97 µM | 3.87 µM | 9.56 µM | 11 µM | 16.9 µM | 10.3 µM | 15.7 µM | 13.6 µM |  |  |  |  |  |  |  |  |  |  | 
O=c1[nH]c(-c2ccccc2)nc2cc([N+](=O)[O-])c(/C(Cl)=C/c3ccccc3)cc12 | > 100 µM | > 100 µM |  | 81.7 µM | > 100 µM | 49.5 µM | > 100 µM |  | > 100 µM |  |  |  |  |  |  |  |  |  |  | 
C=CCc1cc(O)ccc1O | > 100 µM | > 100 µM |  | 11.1 µM | 20.7 µM | 27 µM | 24.4 µM | > 100 µM | > 100 µM | > 100 µM | > 100 µM | 85 µM | 36 µM | 17.7 µM | 44.3 µM | 2.49 µM | 7.64 µM | 14 µM | 11 µM | 
[CH3][Ge]([CH3])([CH2]CC#N)[S]c1ccccc1 | > 100 µM | > 100 µM | 43 µM | 11.1 µM | 29.1 µM | 50 µM | 22.3 µM |  | 28.2 µM |  | 2.19 µM |  | 15 µM | 8 µM |  | 3.31 µM | 12.3 µM | 18.6 µM | 10.5 µM | 18.8 µM
C/C(=C\CNc1ncnc2c1ncn2C1CCCCO1)COP(=O)(O)O (stereo not drawn) | > 100 µM | > 100 µM | > 100 µM | > 100 µM | > 100 µM | > 100 µM | > 100 µM |  | > 100 µM |  |  |  |  |  |  |  |  |  |  | 
NNC(=O)N/N=C(/CC1(O)C(=O)Nc2ccc(Br)cc21)c1ccccc1 (stereo not drawn) | > 100 µM | 69.1 µM | > 100 µM | 46.6 µM | > 100 µM |  | 49.3 µM |  | > 100 µM |  |  |  |  |  |  |  |  |  |  | 
CCCN(CCCC(NC(C)=O)C(=O)NCc1ccccc1)C(=O)N(C)N=O (stereo not drawn) | > 100 µM | > 100 µM | > 100 µM | > 100 µM | > 100 µM | > 100 µM |  |  | > 100 µM |  |  |  |  |  |  |  |  |  |  | 
O=C1C=C(Nc2cc(Cl)ccc2Cl)c2ccccc2C1=O | > 100 µM | 36.8 µM | 38.9 µM |  | 63.7 µM | > 100 µM | > 100 µM |  | > 100 µM |  |  |  |  |  |  |  |  |  |  | 
CCP(C)(=O)CC | > 100 µM | > 100 µM | > 100 µM |  | > 100 µM | > 100 µM | > 100 µM |  | > 100 µM |  |  |  |  |  |  |  |  |  |  | 
CCOC(=O)C1(C)C2=CC=C(O2)C(C)(C)C2=CC=C(O2)C(C)(C)C2=CC=C(O2)C(C)(C)C2=CC=C1O2 | > 100 µM | > 100 µM |  | > 100 µM |  | > 100 µM |  |  | > 100 µM |  |  |  |  |  |  |  |  |  |  | 
Cc1cc(NS(=O)(=O)c2ccc(NC(=O)c3cccc4c(Nc5ccc(S(=O)(=O)Nc6cc(C)on6)cc5)c5ccc(Cl)cc5nc34)cc2)no1 | > 100 µM | > 100 µM | > 100 µM | > 100 µM | > 100 µM | > 100 µM | 86.3 µM |  | > 100 µM |  |  |  |  |  |  |  |  |  |  | 
CCN(CC)Cc1cc(Nc2ccnc3ccc(OC)cc23)ccc1O | 18.1 µM |  | 10.1 µM | 5.61 µM | 20.4 µM | 11.6 µM | 5.96 µM | 16.8 µM | 34 µM | 9.62 µM | 4.37 µM | 3.93 µM | 3.56 µM |  | 2.71 µM | 2.21 µM | 3.2 µM | 2.54 µM | 1.84 µM | 2.88 µM
CCCCNC(=O)CC1=C(C)/C(=C/c2[nH]c(-c3ccc[nH]3)cc2OC)N=C1C | 11.2 µM |  | 3.91 µM | 4.89 µM | 9.77 µM | 19.2 µM | 4 µM | 16.6 µM | 4.12 µM | 9.39 µM | 3.6 µM | 4 µM | 1.88 µM |  | 2.7 µM | 1.8 µM | 2.58 µM | 2.12 µM | 1.9 µM | 1.83 µM
O=C(CC(=O)N1N=C(n2ccc3ccccc32)CC1c1ccccc1)Nc1ccccc1Cl (stereo not drawn) | > 100 µM | > 100 µM | > 100 µM | > 100 µM | > 100 µM | > 100 µM | > 100 µM |  | > 100 µM |  |  |  |  |  |  |  |  |  |  | 
O=C1NC(c2cccc3ccccc23)Nc2ccc(Cl)cc21 (stereo not drawn) | > 100 µM |  |  |  | 0.0151 µM and 0.0303 µM |  | 0.00836 µM | 0.169 µM and 1.43 µM | 0.269 µM | > 100 µM |  |  |  |  | 0.0129 µM |  |  |  |  | 
CCCCN(CCCC)CC(C(=O)Nc1ccc([N+](=O)[O-])cc1[N+](=O)[O-])/C(C)=N\NC(=O)c1ccncc1 (stereo not drawn) | > 100 µM | > 100 µM | > 100 µM | > 100 µM | > 100 µM | > 100 µM | > 100 µM |  | > 100 µM |  |  |  |  |  |  |  |  |  |  | 
C=C1C2CCCC1C1(S(C)(=O)=O)CCCCC21O (stereo not drawn) | > 100 µM | > 100 µM | > 100 µM | > 100 µM | > 100 µM | > 100 µM | > 100 µM |  | > 100 µM |  |  |  |  |  |  |  |  |  |  | 
NC(N)=NCCCC(Nc1c2ccccc2nc2ccccc12)C(=O)O (stereo not drawn) | > 100 µM | > 100 µM | > 100 µM | > 100 µM | > 100 µM | 43.4 µM |  |  | > 100 µM |  |  |  |  |  |  |  |  |  |  | 
O=C1CCC2(c3ccccc3)OCC([C@@H](O)c3ccccc3)N12 (stereo partly drawn) | > 100 µM | > 100 µM |  |  | > 100 µM | > 100 µM |  |  | > 100 µM |  |  |  |  |  |  |  |  |  |  | 
Cc1[nH]c2ccccc2c1/C=C/c1c(C)[nH]c2ccccc12 | > 100 µM | > 100 µM | > 100 µM |  | > 100 µM | > 100 µM | > 100 µM |  | > 100 µM |  |  |  |  |  |  |  |  |  |  | 
